{
  "source": "patent US20100029682A1",
  "about": "“NOVEL CHROMENE AND THIOCHROMENE CARBOXAMIDE DERIVATIVES, METHODS FOR PREPARING SAME AND THERAPEUTIC APPLICATIONS OF SAME” (priority 2006, published 2010)",
  "note": "Structures can show the parent of a compound that is named as a salt.",
  "data": [
    {"values": [
      {"compound": "O=C(NCCCCN1CCN(c2ccccc2F)CC1)C1=Cc2ccccc2OC1", "note": "(as salt: HCl) [Example 3, 2-H-Chromene-3-carboxylic acid {4-[4-(2-fluorophenyl)-piperazin-1-yl]-butyl}-amide]", "melting point": "231 °C"},
      {"compound": "O=C(NCCCCN1CCN(c2ccccc2)CC1)C1=Cc2ccccc2OC1", "note": "(as salt: HCl) [Example 4, 2H-Chromene-3-carboxylic acid {4-(4-phenylpiperazin-1-yl)-butyl}-amide]", "melting point": "239 °C"},
      {"compound": "O=C(NCCCCN1CCN(c2ccc(Cl)cc2)CC1)C1=Cc2ccccc2OC1", "note": "(as salt: HCl) [Example 5, 2H-Chromene-3-carboxylic acid {4-[4-(4-chlorophenyl)-piperazin-1-yl]-butyl}-amide]", "melting point": "236 °C"},
      {"compound": "O=C(NCCCCN1CCN(c2cccc(Cl)c2)CC1)C1=Cc2ccccc2OC1", "note": "(as salt: HCl) [Example 6, 2H-Chromene-3-carboxylic acid {4-[4-(3 chlorophenyl)-piperazin-1-yl]-butyl}-amide]", "melting point": "216 °C"},
      {"compound": "O=C(NCCCCN1CCN(c2ccccc2Cl)CC1)C1=Cc2ccccc2OC1", "note": "(as salt: HCl) [Example 7, 2H-Chromene-3 carboxylic acid {4-[4-(2-chlorophenyl)-piperazin-1-yl]-butyl}-amide]", "melting point": "201 °C"},
      {"compound": "O=C(NCCCCN1CCN(c2ccc(F)cc2)CC1)C1=Cc2ccccc2OC1", "note": "(as salt: HCl) [Example 8, 2H Chromene-3-carboxylic acid {4-[4-(4 fluorophenyl)-piperazin-1-yl]-butyl}-amide]", "melting point": "243 °C"},
      {"compound": "Cc1ccccc1N1CCN(CCCCNC(=O)C2=Cc3ccccc3OC2)CC1", "note": "(as salt: HCl) [Example 9, 2H Chromene-3-carboxylic acid {4-[4-(2-methylphenyl)-piperazin-1-yl]-butyl}-amide]", "melting point": "187 °C"},
      {"compound": "Cc1ccc(N2CCN(CCCCNC(=O)C3=Cc4ccccc4OC3)CC2)c(C)c1", "note": "(as salt: HCl) [Example 10, 2H-Chromene-3-carboxylic acid {4-[4-(2,4-dimethylphenyl)-piperazin-1-yl]-butyl}-amide]", "melting point": "207 °C"},
      {"compound": "Cc1cccc(N2CCN(CCCCNC(=O)C3=Cc4ccccc4OC3)CC2)c1C", "note": "(as salt: HCl) [Example 11, 2H-Chromene-3-carboxylic acid {4-[4-(2,3-dimethylphenyl)piperazin-1-yl]-butyl}-amide]", "melting point": "202 °C"},
      {"compound": "N#Cc1ccccc1N1CCN(CCCCNC(=O)C2=Cc3ccccc3OC2)CC1", "note": "(as salt: HCl) [Example 12, 2H-Chromene-3-carboxylic acid {4-[4-(2-cyanophenyl)-piperazin-1-yl]-butyl}-amide]", "melting point": "194 °C"},
      {"compound": "N#Cc1ccc(N2CCN(CCCCNC(=O)C3=Cc4ccccc4OC3)CC2)cc1", "note": "(as salt: HCl) [Example 13, 2H-Chromene-3-carboxylic acid {4-[4-(4-cyanophenyl)piperazin 1-yl]-butyl}-amide]", "melting point": "212 °C"},
      {"compound": "O=C(NCCCCN1CCN(c2ccc(C(F)(F)F)cc2)CC1)C1=Cc2ccccc2OC1", "note": "(as salt: HCl) [Example 15, 2-H-Chromene-3-carboxylic acid {4-[4-(4-trifluoromethylphenyl)-piperazin-1-yl]-butyl}-amide]", "melting point": "261.9 °C"},
      {"compound": "O=C(NCCCCN1CCN(c2cccc(C(F)(F)F)c2)CC1)C1=Cc2ccccc2OC1", "note": "(as salt: HCl) [Example 16, 2H-Chromene-3-carboxylic acid {4-[4-(3-trifluoromethylphenyl)-piperazin-1-yl]-butyl}-amide]", "melting point": "234 °C"},
      {"compound": "O=C(NCCCCN1CCN(c2ccccc2C(F)(F)F)CC1)C1=Cc2ccccc2OC1", "note": "(as salt: HCl) [Example 17, 2H-Chromene-3 carboxylic acid {4-[4-(2-trifluoromethylphenyl)-piperazin-1-yl]-butyl}-amide]", "melting point": "161 °C"},
      {"compound": "O=C(NCCCCN1CCN(c2ccc([N+](=O)[O-])cc2)CC1)C1=Cc2ccccc2OC1", "note": "(as salt: HCl) [Example 18, 2H-Chromene 3 carboxylic acid {4-[4-(4-nitrophenyl)-piperazin-1-yl]-butyl}-amide]", "melting point": "243 °C"},
      {"compound": "COc1ccccc1N1CCN(CCCCNC(=O)C2=Cc3cc(Cl)ccc3OC2)CC1", "note": "(as salt: HCl) [Example 29, 6-Chloro-2H-chromene-3-carboxylic acid {4-[4-(2-methoxyphenyl)-piperazin-1-yl]-butyl}-amide]", "melting point": "155 °C"},
      {"compound": "O=C(NCCCCN1CCN(c2ccccc2F)CC1)C1=Cc2cc(Cl)ccc2OC1", "note": "(as salt: HCl) [Example 30, 6-Chloro-2H-chromene-3-carboxylic acid {4-[4-(2-fluorophenyl)-piperazin-1-yl]-butyl}-amide]", "melting point": "214 °C"},
      {"compound": "N#Cc1cccc(N2CCN(CCCCNC(=O)C3=Cc4cc(Cl)ccc4OC3)CC2)c1", "note": "(as salt: HCl) [Example 31, 6-Chloro-2H-chromene-3-carboxylic acid {4-[4-(3-cyanophenyl)-piperazin-1-yl]-butyl}-amide]", "melting point": "120 °C (dec.)"},
      {"compound": "O=C(NCCCCN1CCN(c2cccc(Cl)c2Cl)CC1)C1=Cc2ccccc2SC1", "note": "(as salt: HCl) [Example 32, 2H-thiochromene-3-carboxylic acid {4-[4-(2,3-dichlorophenyl)piperazin-1-yl]-butyl}-amide]", "melting point": "215 °C"},
      {"compound": "O=C(NCCCCN1CCN(c2ccccc2F)CC1)C1=Cc2ccccc2SC1", "note": "(as salt: HCl) [Example 33, 2H-Thiochromene-3-carboxylic acid {4-[4-(2-fluorophenyl)piperazin-1-yl]-butyl}-amide]", "melting point": "212 °C"},
      {"compound": "COc1ccccc1N1CCN(CCCCNC(=O)C2=Cc3ccccc3SC2)CC1", "note": "(as salt: HCl) [Example 34, 2H-Thiochromene-3-carboxylic acid {4-[4-(2-methoxyphenyl)piperazin-1-yl]-butyl}-amide]", "melting point": "208 °C"},
      {"compound": "N#Cc1cccc(N2CCN(CCCCNC(=O)C3=Cc4ccccc4SC3)CC2)c1", "note": "(as salt: HCl) [Example 35, 2H-Thiochromene-3-carboxylic acid {4-[4-(3-cyanophenyl)-piperazin-1-yl]-butyl}-amide]", "melting point": "209 °C"},
      {"compound": "O=C(NCCCCN1CCN(c2cccc(O)c2)CC1)C1=Cc2ccccc2SC1", "note": "(as salt: HCl) [Example 41, 2H-Thiochromene-3-carboxylic acid {4-[4-(3-hydroxyphenyl)-piperazin-1-yl]-butyl}-amide]", "melting point": "182 to 184 °C"},
      {"compound": "CC1(C)Sc2ccccc2C=C1C(=O)NCCCCN1CCN(c2cccc(C#N)c2)CC1", "note": "(as salt: HCl) [Example 44, 2,2-Dimethyl-2H thiochromene-3-carboxylic acid {4-[4-(3-cyanophenyl)-piperazin-1-yl]-butyl}-amide]", "melting point": "155 °C"},
      {"compound": "O=C(NCCCCN1CCN(c2cccc(CO)c2)CC1)C1=Cc2ccccc2OC1", "note": "(as salt: HCl) [Example 46, 2H-chromene-3-carboxylic acid {4-[4-(3-hydroxymethylphenyl)-piperazin-1-yl]-butyl}-amide]", "melting point": "194 °C"},
      {"compound": "COc1ccccc1N1CCN(CCCCNC(=O)C2=Cc3c(Br)ccc(OC)c3OC2)CC1", "note": "(as salt: HCl) [Example 50, 5-Bromo-8-methoxy-2H-chromene-3-carboxylic acid {4-[4-(2-methoxyphenyl)piperazin-1-yl]-butyl}-amide]", "melting point": "176 °C"},
      {"compound": "COc1ccc(Br)c2c1OCC(C(=O)NCCCCN1CCN(c3cccc(Cl)c3Cl)CC1)=C2", "note": "(as salt: HCl) [Example 51, 5-Bromo 8 methoxy-2H-chromene-3-carboxylic acid {4-[4-(2,3-dichlorophenyl)-piperazin-1-yl]-butyl}-amide]", "melting point": "205 °C"},
      {"compound": "COc1ccc(Br)c2c1OCC(C(=O)NCCCCN1CCN(c3cccc(C#N)c3)CC1)=C2", "note": "(as salt: HCl) [Example 52, 5-Bromo-8-methoxy-2H-chromene-3-carboxylic acid {4-[4-(3-cyanophenyl)piperazin-1-yl]-butyl}-amide]", "melting point": "155 °C"},
      {"compound": "O=C(NCCCCN1CCN(c2cccc(O)c2)CC1)C1=Cc2ccccc2OC1", "note": "(as salt: HCl) [Example 53, 2H Chromene-3-carboxylic acid {4-[4-(3-hydroxyphenyl)-piperazin-1-yl]-butyl}-amide]", "melting point": "199 °C"},
      {"compound": "COc1ccc2c(c1)C=C(C(=O)NCCCCN1CCN(c3ccccc3OC)CC1)CO2", "note": "(as salt: HCl) [Example 54, 6-Methoxy-2H-chromene-3-carboxylic acid {4-[4-(2-methoxyphenyl)piperazin-1-yl]-butyl}-amide]", "melting point": "165 °C"},
      {"compound": "COc1ccc2c(c1)C=C(C(=O)NCCCCN1CCN(c3cccc(Cl)c3Cl)CC1)CO2", "note": "(as salt: HCl) [Example 55, 6-Methoxy-2H-chromene-3-carboxylic acid {4-[4-(2,3-dichlorophenyl)-piperazin-1-yl]-butyl}-amide]", "melting point": "205 °C"},
      {"compound": "COc1ccc2c(c1)C=C(C(=O)NCCCCN1CCN(c3cccc(C#N)c3)CC1)CO2", "note": "(as salt: HCl) [Example 57, 6-Methoxy-2H-chromene-3-carboxylic acid {4-[4-(3-cyanophenyl)-piperazin-1-yl]-butyl}-amide]", "melting point": "159 °C"},
      {"compound": "O=C(NCCCCN1CCN(c2ccccc2O)CC1)C1=Cc2ccccc2OC1", "note": "(as salt: HCl) [Example 58, 2H-Chromene-3-carboxylic acid {4-[4-(2-hydroxyphenyl)-piperazin-1-yl]-butyl}-amide]", "melting point": "189 °C"},
      {"compound": "O=C(NCCCCN1CCN(c2ccc(O)cc2)CC1)C1=Cc2ccccc2OC1", "note": "(as salt: HCl) [Example 59, 2H-Chromene-3-carboxylic acid {4-[4-(4-hydroxyphenyl)-piperazin-1-yl]-butyl}-amide]", "melting point": "236 °C"},
      {"compound": "COc1ccccc1N1CCN(CCCCNC(=O)C2=Cc3ccccc3OC2)CC1", "note": "(as salt: hydrochloride) [Example 1, 2H-Chromene 3-carboxylic acid {4-[4-(2-methoxyphenyl)-piperazin-1-yl]-butyl}-amide]", "melting point": "224 °C"},
      {"compound": "O=C(NCCCCN1CCN(c2cccc(Cl)c2Cl)CC1)C1=Cc2ccccc2OC1", "note": "(as salt: hydrochloride) [Example 2, 2H-Chromene-3-carboxylic acid {4-[4-(2,3-dichlorophenyl)-piperazin-1-yl]-butyl}-amide]", "melting point": "201 °C"}
    ]}
  ]
}
